Consider 23 molecules from patent US4695581A, “2-(3,5-dialkyl-4-hydroxyphenyl)indole derivatives” (Teikoku Hormone Mfg. Co., Ltd., priority 1984, dated 1987).

The test system of data set [1] is SRS-A-like active substance. In words: A23187-induced pleurisy; inhibition of formation of SRS-A-like active substance in pleural exudate. The following applies: Rattus norvegicus, po, p.o., 60 minutes before intrapleural A23187, rats, vs solvent control, read-out: Inhibitory activity on the formation of SRS-A-like active substance. Format: in vivo, rat (Wistar-strain, male, 11 weeks old). Here is the method:
(1) Preparation of A23187 -induced pleurisy Under ether anaesthesia, 0.2 ml of 100 μM A23187 (prepared by adding injectable distilled water in a 2 mM A23187 ethanol solution) was administered intrapleurally to rats (Wistar-strain, male, 11 weeks old). Twenty minutes after the administration, the rats were exsanguinated and the pleural exudate was harvested. […] (2) Measurement of SRS-A-like active substance To the exudate obtained in (1) was added 4 times its volume of ice-cooled ethanol. They were well mixed, and then centrifuged. […] The solution was added to SEP-PAK® (C18) and SRS-A-like active substance was partially purified. […] The residue was dissolved in purified water in an amount corresponding to the amount of the exudate. The SRS-A-like active substance was assayed on the basis of contraction of the ileum of guinea pig (Hartley-strain, male, body weight 400-500 g) in the presence of atropine and Pyrilamine. The presence of SRS-A was confirmed by the fact that the contraction of the isolated ileum by the test solution was antagonized by FPL-55712 which is a specific antagonist for SRS-A. The results are shown in the following table. The activity of inhibiting the formation of an SRS-A-like active substance is indicated as the percent inhibition based on a control group to which only the solvent was administered.

Data set [2] relates to lipoxygenase. The settings on record: known from the prior art; cited from earlier work.
Data set [3] has as its system cyclooxygenase. The following applies: known from the prior art; cited from earlier work.
Data set [4] deals with SD-strain male rats. The data set can be described thus: Toxicity, oral administration, observation for 2 weeks. Format: in vivo, rat (SD-strain. The following applies: 5 g/kg, 10% gum arabic suspension, 5-membered groups. The text has this: The test compound was suspended in a 10% gum arabic solution, and orally administered to SD-strain male rats (body weight 100-115 g) in 5-membered groups.

Data set [5] has as its system SRS-A. In words: Contraction of isolated guinea pig ileum by the test solution (confirmation of SRS-A). More on the design: species or system guinea pig (Hartley-strain, male). The settings on record: in the presence of atropine and Pyrilamine. Here is the method: The SRS-A-like active substance was assayed on the basis of contraction of the ileum of guinea pig (Hartley-strain, male, body weight 400-500 g) in the presence of atropine and Pyrilamine. The presence of SRS-A was confirmed by the fact that the contraction of the isolated ileum by the test solution was antagonized by FPL-55712 which is a specific antagonist for SRS-A.

Where a name gives a salt, the structure may show the parent alone.

Turning to `CCOc1ccc2[nH]c(-c3cc(C)c(O)c(C)c3)c(C)c2c1` [Example 8, 5-Ethoxy-2-(4-hydroxy-3,5-dimethylphenyl)-3-methylindole], the inhibition at 10 mg/kg in data set [1] worked out at 28.7%. `Cc1cc(-c2[nH]c3ccccc3c2C)cc(C)c1O` [Example 30, 2-(4-hydroxy-3,5-dimethylphenyl)-3-methylindole]: in data set [1], the inhibition at 10 mg/kg came out at 58% and the inhibition at 30 mg/kg was found to be 90.2%. Turning to `Cc1cc(-c2[nH]c3ccc(OC(C)C)cc3c2C)cc(C)c1O` [Example 9, 2-(4-Hydroxy-3,5-dimethylphenyl)-3-methyl-5-isopropoxyindole], the inhibition at 10 mg/kg in data set [1] is 58.4%. Turning to `CCCCCC#CCC#CCC#CCC#CCCCC(=O)O` [5,8,11,14-eicosatetraynoic acid], the lipoxygenase inhibition entry in data set [2] is “lipoxygenase inhibitors”. In addition, the “cyclooxygenase inhibition (lack of specificity)” value in data set [3] was “lack specificity and inhibit not only lipoxygenase but also cyclooxygenase”. For the molecule `CCN(CC)CCNc1ccc2[nH]c(-c3cc(C)c(O)c(C)c3)c(C)c2c1` [Example 38, 5-(2-diethylaminoethylamino)-2-(4-hydroxy-3,5-dimethylphenyl)-3-methylindole dihydrochloride], the inhibition at 10 mg/kg in data set [1] is 38.3%. As to `NC1=NN(c2cccc(C(F)(F)F)c2)CC1` [BW755C, 3-amino-1-(3-trifluoromethylphenyl)-2-pyrazoline], the lipoxygenase inhibition entry in data set [2] is reported as “lipoxygenase inhibitors”. For the same molecule, the “cyclooxygenase inhibition (lack of specificity)” value in data set [3] is “lack specificity and inhibit not only lipoxygenase but also cyclooxygenase”. In the case of `CCc1cc(-c2[nH]c3ccccc3c2C)cc(CC)c1O` [Example 46, 2-(3,5-diethyl-4-hydroxyphenyl)-3-methylindole], in data set [1], the inhibition at 10 mg/kg is 22.9% and the inhibition at 30 mg/kg was found to be 74.2%. For `Cc1ccc2[nH]c(-c3cc(C)c(O)c(C)c3)c(C)c2c1` [Example 5, 2-(4-Hydroxy-3,5-dimethylphenyl)-3,5-dimethylindole], the inhibition at 10 mg/kg in data set [1] is 54.7%.

On to `Cc1cc(-c2[nH]c3c(C)cccc3c2C)cc(C)c1O` [Example 16, 2-(4-Hydroxy-3,5-dimethylphenyl)-3,7-dimethylindole], for which the inhibition at 10 mg/kg in data set [1] worked out at 37.5%. On to `COc1ccc2[nH]c(-c3cc(C)c(O)c(C)c3)c(C)c2c1` [Example 1, 2-(4-hydroxy-3,5-dimethylphenyl)-5-methoxy-3-methylindole], for which the inhibition at 10 mg/kg in data set [1] is 66.2%. In data set [4], the death result is on record as “No case of death was observed”. Consider `CCc1cc(-c2[nH]c3ccccc3c2CC)cc(CC)c1O` [Example 50, 3-ethyl-2-(3,5-diethyl-4-hydroxyphenyl)indole], for which the inhibition at 10 mg/kg in data set [1] was 21.5%. For the molecule `CCc1c(-c2cc(C)c(O)c(C)c2)[nH]c2ccccc12` [Example 44, 3-ethyl-2-(4-hydroxy-3,5-dimethylphenyl)indole], in data set [1], the inhibition at 10 mg/kg was determined as 46.9% and the inhibition at 30 mg/kg came out at 87.2%. Take `CCc1c(-c2cc(C)c(O)c(C)c2)[nH]c2ccc(OC)cc12` [Example 45, 3-ethyl-2-(4-hydroxy-3,5-dimethylphenyl)-5-methoxyindole]: in data set [1], the inhibition at 10 mg/kg amounted to 52.7%. With `CSc1ccc2[nH]c(-c3cc(C)c(O)c(C)c3)c(C)c2c1` [Example 10, 2-(4-hydroxy-3,5-dimethylphenyl)-3-methyl-5-methylthioindole], the inhibition at 10 mg/kg in data set [1] was found to be 41%. Turning to `CCCc1c(OCC(O)COc2ccc3c(=O)cc(C(=O)O)oc3c2CCC)ccc(C(C)=O)c1O` (centres unmarked) [FPL-55712], the “antagonism of contraction of the isolated ileum” value in data set [5] was “antagonized”. As to `CCc1cc(-c2[nH]c3ccc(OC)cc3c2C)cc(CC)c1O` [Example 48, 2-(3,5-diethyl-4-hydroxyphenyl)-5-methoxy-3-methylindole], the inhibition at 10 mg/kg in data set [1] worked out at 28.3%. Still for that read-out and setting: to `Cc1cc(-c2[nH]c3ccc(N)cc3c2C)cc(C)c1O` [Example 33, 5-amino-2-(4-hydroxy-3,5-dimethylphenyl)-3-methylindole] belongs 68.1%; to `CCCOc1ccc2[nH]c(-c3cc(C)c(O)c(C)c3)c(C)c2c1` [Example 43, 2-(4-hydroxy-3,5-dimethylphenyl)-3-methyl-5-n-propoxyindole], 46.2%; to `Cc1ccc2c(C)c(-c3cc(C)c(O)c(C)c3)[nH]c2c1` [Example 14, 2-(4-Hydroxy-3,5-dimethylphenyl)-3,6-dimethylindole], 30.7%. Still for that read-out and setting: next, `CCN(CC)CCOc1ccc2[nH]c(-c3cc(C)c(O)c(C)c3)c(C)c2c1` [Example 35, 5-(2-diethylaminoethoxy)-2-(4-hydroxy-3,5-dimethylphenyl)-3-methylindole]: 39.1%.

Consider `CC(=O)Oc1ccc2[nH]c(-c3cc(C)c(O)c(C)c3)c(C)c2c1` [Example 37], for which the inhibition at 10 mg/kg in data set [1] was 43.7%.

In the case of `Cc1cc(-c2[nH]c3ccc(OCc4ccccc4)cc3c2C)cc(C)c1O` [Example 36, 5-benzyloxy-2-(4-hydroxy-3,5-dimethylphenyl)-3-methylindole], the inhibition at 10 mg/kg in data set [1] was 35.4%. Still for that read-out and setting: to `COc1cc2[nH]c(-c3cc(C)c(O)c(C)c3)c(C)c2cc1OC` [Example 24, 2-(4-Hydroxy-3,5-dimethylphenyl)-5,6-dimethoxy-3-methylindole] belongs 70.4%.
